Columns and labels:
[1] = target: T1, A2A receptor (Homo sapiens, UniProt P29274); experiment: A2aR antagonism IC50, cAMP TR-FRET in HEK-293 cells, high concentration of adenosine (30 μM); format: cell-based; conditions: HEK-293 cells expressing A2A receptor; agonist adenosine 30 μM; 2% HSA; inhibition of cAMP; read-out: A2AR IC50 (nM) (@30 μM Adenosine);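 note: compounds added 10 min before adenosine, then 30 min stimulation at room temperature in buffer with 100 µM rolipram and 30 µM EHNA, signal read 1 h after detection reagents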
T1 construct: host or cells: HEK-293
T1 sequence (P29274 whole entry): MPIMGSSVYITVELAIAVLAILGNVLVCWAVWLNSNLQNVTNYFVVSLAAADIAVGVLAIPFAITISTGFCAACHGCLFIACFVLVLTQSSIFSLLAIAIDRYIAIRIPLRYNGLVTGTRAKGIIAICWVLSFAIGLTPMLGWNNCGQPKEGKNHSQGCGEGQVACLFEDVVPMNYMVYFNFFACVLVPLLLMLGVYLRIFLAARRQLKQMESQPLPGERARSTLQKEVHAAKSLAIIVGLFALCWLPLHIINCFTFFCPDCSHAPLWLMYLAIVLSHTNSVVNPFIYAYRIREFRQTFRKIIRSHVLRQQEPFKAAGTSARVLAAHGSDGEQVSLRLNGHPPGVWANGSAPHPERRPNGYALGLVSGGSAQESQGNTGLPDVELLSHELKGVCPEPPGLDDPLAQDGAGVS

[2] = target: T2, A2B receptor (Homo sapiens, UniProt P29275); experiment: A2bR antagonism IC50, cAMP TR-FRET in HEK-293 cells, high concentration of adenosine (30 μM); conditions: A2BR IC50 (nM) (@30 μM Adenosine), HEK-293 cells expressing A2B receptor; agonist adenosine 30 μM; 2% HSA; inhibition of cAMP;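 note: compounds preincubated 10 min with cells, then adenosine stimulation 30 min at room temperature in buffer with Rolipram 100 µM and EHNA 30 µM, TR-FRET read after 1 h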
T2 sequence (P29275 1-332): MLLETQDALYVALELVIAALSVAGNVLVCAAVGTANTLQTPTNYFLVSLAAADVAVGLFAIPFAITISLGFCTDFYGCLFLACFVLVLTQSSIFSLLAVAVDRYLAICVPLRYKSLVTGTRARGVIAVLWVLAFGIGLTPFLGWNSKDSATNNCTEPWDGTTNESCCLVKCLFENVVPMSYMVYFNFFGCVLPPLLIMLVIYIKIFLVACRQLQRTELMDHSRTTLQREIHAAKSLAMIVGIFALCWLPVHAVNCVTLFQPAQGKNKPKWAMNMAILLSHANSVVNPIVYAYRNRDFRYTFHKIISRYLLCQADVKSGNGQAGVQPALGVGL

IC50 [1]	IC50 [2]	Compound
161 nM	2170 nM	Cc1nn2c(N)c(C#N)c(NCCc3ccn(C4COCC4CO)n3)nc2c1Cl (stereo not drawn) [Example 127, 7-amino-3-chloro-5-((2-(1-(4-(hydroxymethyl)tetrahydrofuran-3-yl)-1H-pyrazol-3-yl)ethyl)amino)-2-methylpyrazolo[1,5-a] pyrimidine-6-carbonitrile]
368 nM	1110 nM	CCc1c(C)nn2c(N)c(C#N)c(NCCc3cccn(CC4CC(O)C4)c3=O)nc12 (stereo not drawn) [Example 128, 7-amino-3-ethyl-5-((2-(1-((3-hydroxycyclobutyl)methyl)-2-oxo-1,2-dihydropyridin-3-yl)ethyl)amino)-2-methylpyrazolo[1,5-a]pyrimidine-6-carbonitrile]
237 nM	5660 nM	Cc1nn2c(N)c(C#N)c(NCCc3cccn(CCCN)c3=O)nc2c1Cl [Example 129, 7-amino-5-((2-(1-(3-aminopropyl)-2-oxo-1,2-dihydropyridin-3-yl)ethyl)amino)-3-chloro-2-methylpyrazolo[1,5-a]pyrimidine-6-carbonitrile]
280 nM	5880 nM	Cc1nn2c(N)c(C#N)c(NCCc3ccn(C4CCC4CO)n3)nc2c1Br (stereo not drawn) [Example 130, 7-amino-3-bromo-5-((2-(1-(2-(hydroxymethyl)cyclobutyl)-1H-pyrazol-3-yl)ethyl)amino)-2-methylpyrazolo[1,5-a]pyrimidine-6-carbonitrile]
1460 nM	> 15000 nM	CCc1c(C(F)F)nn2c(N)c(C#N)c(NCCc3cccn(CCO)c3=O)nc12 [Example 131, 7-amino-2-(difluoromethyl)-3-ethyl-5-((2-(1-(2-hydroxyethyl)-2-oxo-1,2-dihydropyridin-3-yl)ethyl)amino) pyrazolo[1,5-a]pyrimidine-6-carbonitrile]
475 nM	2510 nM	CCc1c(C)nn2c(N)c(C#N)c(NCCc3ccn(C4CCC4CNCC(N)=O)n3)nc12 (stereo not drawn) [Example 134, 2-(((2-(3-(2-((7-amino-6-cyano-3-ethyl-2-methylpyrazolo[1,5-a]pyrimidin-5-yl)amino)ethyl)-1H-pyrazol-1-yl)cyclobutyl)methyl)amino) acetamide]
1310 nM	2220 nM	CCc1c(C)nn2c(N)c(C#N)c(NCCc3cccc(C(O)C(F)(F)F)n3)nc12 (stereo not drawn) [Example 135, 7-amino-3-ethyl-2-methyl-5-((2-(6-(2,2,2-trifluoro-1-hydroxyethyl)pyridine-2-yl)ethyl)amino) pyrazolo[1,5-a]pyrimidine-6 carbonitrile]
506 nM	2610 nM	CCc1c(C)nn2c(N)c(C#N)c(NCCc3cccn(CCCN)c3=O)nc12 [Example 136, 7-amino-5-((2-(1-(3-aminopropyl)-2-oxo-1,2-dihydropyridin-3-yl)ethyl)amino)-3-ethyl-2-methylpyrazolo[1,5-a]pyrimidine-6-carbonitrile]
820 nM	> 15000 nM	Cc1nn2c(N)c(C#N)c(NCCc3ccn(C4(CO)CC4)n3)nc2c1CC1CCC1 [Example 137, 7-amino-3-(cyclobutylmethyl)-5-((2-(1-(1-(hydroxymethyl)cyclopropyl)-1H-pyrazol-3-yl)ethyl)amino)-2-methylpyrazolo[1,5-a]pyrimidine-6-carbonitrile]
88 nM	2050 nM	Cc1nn2c(N)c(C#N)c(NCCc3cccn(CCCO)c3=O)nc2c1C [Example 138, 7-amino-5-((2-(1-(3-hydroxypropyl)-2-oxo-1,2-dihydropyridin-3-yl)ethyl)amino)-2,3-dimethylpyrazolo[1,5-a] pyrimidine-6-carbonitrile]
165 nM	482 nM	CCc1c(C)nn2c(N)c(C#N)c(NCCc3cccc(CCO)n3)nc12 [Example 139, 7-amino-3-ethyl-5-((2-(6-(2-hydroxyethyl)pyridine-2-yl)ethyl)amino)-2-methylpyrazolo[1,5-a]pyrimidine-6-carbonitrile]
6020 nM	> 15000 nM	Cc1cncc(CCNc2nc3c(C)c(C)nn3c(N)c2C#N)n1 [Example 140, 7-amino-2,3-dimethyl-5-((2-(6-methylpyrazin-2-yl)ethyl)amino) pyrazolo[1,5-a]pyrimidine-6-carbonitrile]
679 nM	4750 nM	Cc1nn2c(N)c(C#N)c(NCCc3cccn(CCCN)c3=O)nc2c1C [Example 141, 7-amino-5-((2-(1-(3-aminopropyl)-2-oxo-1,2-dihydropyridin-3-yl)ethyl)amino)-2,3-dimethylpyrazolo[1,5-a]pyrimidine-6-carbonitrile]
141 nM	1660 nM	CCc1c(C)nn2c(N)c(C#N)c(NCCc3cccn(CCSC)c3=O)nc12 [Example 142, 7-amino-3-ethyl-2-methyl-5-((2-(1-(2-(methylthio)ethyl)-2-oxo-1,2-dihydropyridin-3-yl)ethyl)amino)pyrazolo[1,5-a]pyrimidine-6-carbonitrile]
294 nM	1130 nM	CCc1c(C)nn2c(N)c(C#N)c(NCCc3cccn(CCCNC(C)=O)c3=O)nc12 [Example 145, N-(3-(3-(2-((7-amino-6-cyano-3-ethyl-2-methylpyrazolo[1,5-a]pyrimidin-5-yl)amino)ethyl)-2-oxopyridin-1(2H)-yl)propyl) acetamide]
255 nM	2470 nM	CCc1c(C)nn2c(N)c(C#N)c(NCCc3ccn(C4(CN)CC4)n3)nc12 [Example 146, 7-amino-5-((2-(1-(1-(aminomethyl)cyclopropyl)-1H-pyrazol-3-yl)ethyl)amino)-3-ethyl-2-methylpyrazolo[1,5-a]pyrimidine-6-carbonitrile]
363 nM	9080 nM	CCc1c(C)nn2c(N)c(C#N)c(NCCc3ccn(C4(CNC(C)=O)CC4)n3)nc12 [Example 147, N-((1-(3-(2-((7-amino-6-cyano-3-ethyl-2-methylpyrazolo[1,5-a]pyrimidin-5-yl)amino)ethyl)-1H-pyrazol-1-yl)cyclopropyl)methyl) acetamide]
161 nM	2740 nM	CCc1c(C)nn2c(N)c(C#N)c(NCCc3ccn(C4(CCN)CC4)n3)nc12 [Example 148, 7-amino-5-((2-(1-(1-(2-aminoethyl)cyclopropyl)-1H-pyrazol-3-yl)ethyl)amino)-3-ethyl-2-methylpyrazolo[1,5-a] pyrimidine-6-carbonitrile]
43 nM	988 nM	CCc1c(C)nn2c(N)c(C#N)c(NCCc3ccn(C4(CCNC(C)=O)CC4)n3)nc12 [Example 149, N-(2-(1-(3-(2-((7-amino-6-cyano-3-ethyl-2-methylpyrazolo[1,5-a]pyrimidin-5-yl)amino)ethyl)-1H-pyrazol-1-yl)cyclopropyl)ethyl) acetamide]
1150 nM	1630 nM	CCc1c(C)nn2c(N)c(C#N)c(NCCc3cccc(OCCO)n3)nc12 [Example 150, 7-amino-3-ethyl-5-((2-(6-(2-hydroxyethoxy)pyridin-2-yl)ethyl)amino)-2-methylpyrazolo[1,5-a] pyrimidine-6-carbonitrile]
95 nM	4610 nM	Cc1nn2c(N)c(C#N)c(NCCc3ccn(C4(CCN)CC4)n3)nc2c1Cl [Example 151, 7-amino-5-((2-(1-(1-(2-aminoethyl)cyclopropyl)-1H-pyrazol-3-yl)ethyl)amino)-3-chloro-2-methylpyrazolo[1,5-a]pyrimidine-6-carbonitrile]
209 nM	1790 nM	Cc1nn2c(N)c(C#N)c(NCCc3cccc(CCO)n3)nc2c1C [Example 152, 7-amino-5-((2-(6-(2-hydroxyethyl)pyridin-2-yl)ethyl)amino)-2,3-dimethylpyrazolo[1,5-a] pyrimidine-6-carbonitrile]
195 nM	1190 nM	CCc1c(C)nn2c(N)c(C#N)c(NCCc3cccn(CCCSC)c3=O)nc12 [Example 153, 7-amino-3-ethyl-2-methyl-5-((2-(1-(3-(methylthio)propyl)-2-oxo-1,2-dihydropyridin-3-yl)ethyl)amino)pyrazolo[1,5-a]pyrimidine-6-carbonitrile]
750 nM	2950 nM	CCCc1c(C)nn2c(N)c(C#N)c(NCCc3cccn(CCCO)c3=O)nc12 [Example 156, 7-amino-5-((2-(1-(3-hydroxypropyl)-2-oxo-1,2-dihydropyridin-3-yl)ethyl)amino)-2-methyl-3-propylpyrazolo[1,5-a]pyrimidine-6-carbonitrile]
1670 nM	2930 nM	CCCc1c(C)nn2c(N)c(C#N)c(NCCc3cccc(CO)n3)nc12 [Example 157, 7-amino-5-((2-(6-(hydroxymethyl)397yridine-2-yl)ethyl)amino)-2-methyl-3-propylpyrazolo[1,5-a]pyrimidine-6-carbonitrile]
805 nM	3350 nM	CCCc1c(C)nn2c(N)c(C#N)c(NCCc3ccn(C4(CO)CC4)n3)nc12 [Example 158, 7-amino-5-((2-(1-(1-(hydroxymethyl)cyclopropyl)-1H-pyrazol-3-yl)ethyl)amino)-2-methyl-3-propylpyrazolo[1,5-a]pyrimidine-6-carbonitrile]
2770 nM	3970 nM	CCc1c(C)nn2c(N)c(C#N)c(NCCc3ccn(CCCSC)n3)nc12 [Example 161, 7-amino-3-ethyl-2-methyl-5-((2-(1-(3-(methylthio)propyl)-1H-pyrazol-3-yl)ethyl)amino)pyrazolo[1,5-a]pyrimidine-6-carbonitrile]
